According to patent publication US8221975B2, “Method for detection of microorganism” (Morinaga Milk Industry Co., Ltd., priority 2007, dated 2012):

System: Enterobacter sakazakii ATCC 6538P
Assay: MMS real-time PCR (79 bp) of EMA-treated Enterobacter sakazakii, Ct value
Format: cell-based
Description: In the case where the real-time PCR is employed, changes in fluorescent intensities are generally noise levels and about zero if the number of amplification cycles is in the range of 1 to 10. Therefore, the intensities are regarded as sample blanks containing no amplification products. The standard deviation (SD) of the changes is calculated, and a value obtained by multiplying the SD value by 10 is defined as a threshold value. The number of PCR cycles in which a value larger than the threshold value is achieved for the first time referred to as “cycle threshold value (Ct value)”. Therefore, the larger the initial amount of a DNA template in a PCR reaction solution, the smaller the Ct value, while the smaller the amount of the template DNA, the larger the Ct value. Even if the amounts of the template DNA are the same, the higher the proportion of the template where a target region of PCR has been cleaved, the larger the Ct value in PCR reactions for the region.
A Gram-negative bacterium, Enterobacter sakazakii (Enterobacter sakazakii ATCC 6538P; hereinafter, abbreviated as “sakazakii” in some cases), was cultured in brain-heart infusion (BHI) broth at 37° C., and 5 ml of the culture medium in the logarithmic growth phase was centrifuged at 8,000×g for 15 minutes at 4° C., followed by removal of the supernatant. 5 ml of physiological saline was added to the bacterial cells, and the whole was vigorously stirred and diluted 10-fold. Thus, a live cell suspension was prepared. The number of the live cells in the live cell suspension was determined in a standard agar plate medium and found to be 8.38±0.25 log10 cfu/ml.
The live cell suspension (1 ml) was placed in a 1.5-ml microtube, and the microtube was immersed in boiling water for 2 minutes and immediately cooled with ice water, to thereby prepare a injured cell suspension. The cells in the suspension probably include small numbers of live cells and dead cells but include mainly injured cells. Therefore, the cells are simply referred to as “injured cells”. Note that the method of the present invention is originally intended to detect live cells, and microorganism cells distinguished from live cells may be injured cells or dead cells.
Ethidium monoazide (EMA) was added to the live cell suspension and injured cell suspension of sakazakii prepared above at a final concentration of 0, 10, 25, or 100 μg/ml, and the suspensions were allowed to stand under shading at 4° C. for 10 minutes. The suspensions were placed on ice and irradiated for 5 minutes with a 500-W visible light (FLOOD PRF: 100 V, 500 W, IWASAKI ELECTRIC CO., LTD., wavelength: 500 to 700 nm) at a distance of 20 cm from the suspensions. Then, the suspensions were centrifuged at 15,000×g for 10 minutes at 4° C., and the supernatants were removed. An equal volume of physiological saline was added thereto, and the suspensions were stirred and centrifuged while cooling at 15,000×g for 10 minutes at 4° C., followed by removal of the supernatants. An equal volume of brain-heart infusion (BHI) broth was added thereto, and the suspensions were incubated at 37° C. for 2 hours.
In the […] EMA treatment, EMA was not added again to the live cell and injured cell suspensions having an EMA concentration of 0, […] The suspensions were allowed to stand under shading at 4° C. for 10 minutes, placed on ice, and irradiated for 5 minutes with a 500-W visible light at a distance of 20 cm from the suspensions.
Ethidium monoazide (EMA) was added to the live cell and injured cell suspensions of sakazakii prepared in the section “1.” at a final concentration of 0, 10, 25 or 100 μg/ml, and the suspensions were allowed to stand under shading at 4° C. for 10 minutes, placed on ice, and irradiated for 5 minutes with a 500-W visible light (FLOOD PRF: 100V, 500 W, IWASAKI ELECTRIC CO., LTD., wavelength: 500 to 700 nm) at a distance of 20 cm from the suspensions. […]

[1] = single-step EMA 10 μg/ml, Injured cell
[2] = single-step EMA 25 μg/ml, Injured cell
[3] = single-step EMA 100 μg/ml, Injured cell

Q: For `CC[n+]1c(-c2ccccc2)c2cc(N=[N+]=[N-])ccc2c2ccc(N)cc21` [EMA, ethidium monoazide], which “Ct value (mean ± SD, N = 2)” value [1] is on record?
A: 27.6 ± 0.1

Q: And the “number of times of positive reaction in two PCR assays (i/2)” value (shortened to “number of times of positive reaction”) [1]?
A: (2/2)

Q: What about the “Ct value (mean ± SD, N = 2)” value (single-step EMA 10 μg/ml, Live cell) of the same compound?
A: 20.8 ± 0.9

Q: What about the “Ct value (mean ± SD, N = 2)” value [2] of the same compound?
A: 27.3 ± 1.0

Q: And the “number of times of positive reaction” value [2]?
A: (2/2)

Q: And the “Ct value (mean ± SD, N = 2)” value (single-step EMA 25 μg/ml, Live cell)?
A: 19.9 ± 1.3

Q: And the “Ct value (mean ± SD, N = 2)” value [3]?
A: 25.2 ± 0.5

Q: What about the “number of times of positive reaction” value [3] of the same compound?
A: (2/2)

Q: What about the “Ct value (mean ± SD, N = 2)” value (single-step EMA 100 μg/ml, Live cell) of the same compound?
A: 22.2 ± 1.0

Q: And the “Ct value (mean ± SD, N = 2)” value (two-step EMA 10/10 μg/ml, Live cell)?
A: 17.1 ± 1.8

Q: And the “Ct value (mean ± SD, N = 2)” value (two-step EMA 25/10 μg/ml, Live cell)?
A: 18.5 ± 2.5

Q: What about the “Ct value (mean ± SD, N = 2)” value (two-step EMA 100/10 μg/ml, Injured cell) of the same compound?
A: 27.3, ND^d,e

Q: What about the “Ct value (mean ± SD, N = 2)” value (two-step EMA 100/10 μg/ml, Live cell) of the same compound?
A: 22.9 ± 1.0
